According to ChEMBL document CHEMBL1201862, “PubChem BioAssay data set” (2004):
One block for each compound: values may come before it. Active and inactive are the calls of the source.

Tests used:
Format in all cases: functional
[1] = target: T1, Serine/threonine-protein kinase D3 (Homo sapiens, UniProt O94806);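 further: determined within a kinase panel screen, with PRKCN as the panel member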
T1 sequence (O94806 whole entry): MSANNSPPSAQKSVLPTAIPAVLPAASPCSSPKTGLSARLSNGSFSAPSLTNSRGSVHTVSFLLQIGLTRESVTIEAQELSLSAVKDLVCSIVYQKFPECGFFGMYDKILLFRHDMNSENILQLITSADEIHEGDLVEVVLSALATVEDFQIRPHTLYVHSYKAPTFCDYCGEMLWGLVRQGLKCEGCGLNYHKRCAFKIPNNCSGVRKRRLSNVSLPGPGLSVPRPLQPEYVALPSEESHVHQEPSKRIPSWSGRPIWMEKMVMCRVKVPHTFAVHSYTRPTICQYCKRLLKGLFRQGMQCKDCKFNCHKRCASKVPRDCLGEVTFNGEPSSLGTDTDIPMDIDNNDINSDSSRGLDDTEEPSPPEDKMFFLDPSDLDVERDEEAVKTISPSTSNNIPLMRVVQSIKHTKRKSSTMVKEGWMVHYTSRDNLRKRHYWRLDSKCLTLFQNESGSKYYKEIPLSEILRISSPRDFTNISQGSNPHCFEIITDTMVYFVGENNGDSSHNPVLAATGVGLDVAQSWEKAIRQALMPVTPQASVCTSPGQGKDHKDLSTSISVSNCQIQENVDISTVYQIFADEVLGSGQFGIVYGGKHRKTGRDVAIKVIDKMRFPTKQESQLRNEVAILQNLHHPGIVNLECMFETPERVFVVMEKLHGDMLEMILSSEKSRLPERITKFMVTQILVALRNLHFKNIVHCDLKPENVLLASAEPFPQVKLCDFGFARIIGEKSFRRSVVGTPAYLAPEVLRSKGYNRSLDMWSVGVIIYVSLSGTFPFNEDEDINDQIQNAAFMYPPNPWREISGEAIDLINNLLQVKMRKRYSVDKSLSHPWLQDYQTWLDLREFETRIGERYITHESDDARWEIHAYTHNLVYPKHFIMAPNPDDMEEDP

[2] = target: LIM domain kinase 1 (Homo sapiens, UniProt P53667); assay: Navigating the Kinome. Panel member name: LIMK1
[3] = target: Cyclin-dependent kinase 8 (Homo sapiens, UniProt P49336); assay: Navigating the Kinome. Panel member name: CDK8
[4] = target: Aurora kinase B (Homo sapiens, UniProt Q96GD4)
[5] = target: Vascular endothelial growth factor receptor 2 (Homo sapiens, UniProt P35968)
[6] = target: Cyclin-dependent kinase 5 (Homo sapiens, UniProt Q00535);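 further: CDK5 measured as one member of a kinase profiling panel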
Cyclin-dependent kinase 5, sequence (Q00535 whole entry): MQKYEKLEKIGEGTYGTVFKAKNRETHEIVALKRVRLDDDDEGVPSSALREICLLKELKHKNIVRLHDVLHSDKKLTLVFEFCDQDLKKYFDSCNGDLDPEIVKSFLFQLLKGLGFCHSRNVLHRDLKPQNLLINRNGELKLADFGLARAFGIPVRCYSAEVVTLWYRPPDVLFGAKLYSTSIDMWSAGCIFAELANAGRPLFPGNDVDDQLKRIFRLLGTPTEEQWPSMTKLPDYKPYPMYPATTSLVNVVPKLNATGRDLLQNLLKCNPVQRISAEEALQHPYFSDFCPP

[7] = target: Death-associated protein kinase 3 (Homo sapiens, UniProt O43293);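 further: measured as one member of a kinome-wide profiling panel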
[8] = target: Dual specificity protein kinase CLK4 (Homo sapiens, UniProt Q9HAZ1)
[9] = target: ALK tyrosine kinase receptor (Homo sapiens, UniProt Q9UM73);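 further: ALK tested as one member of a kinase panel screen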
[10] = target: Macrophage colony-stimulating factor 1 receptor (Homo sapiens, UniProt P07333);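 further: value comes from the Navigating the Kinome screening panel, CSF1R member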
Macrophage colony-stimulating factor 1 receptor, sequence (P07333 whole entry): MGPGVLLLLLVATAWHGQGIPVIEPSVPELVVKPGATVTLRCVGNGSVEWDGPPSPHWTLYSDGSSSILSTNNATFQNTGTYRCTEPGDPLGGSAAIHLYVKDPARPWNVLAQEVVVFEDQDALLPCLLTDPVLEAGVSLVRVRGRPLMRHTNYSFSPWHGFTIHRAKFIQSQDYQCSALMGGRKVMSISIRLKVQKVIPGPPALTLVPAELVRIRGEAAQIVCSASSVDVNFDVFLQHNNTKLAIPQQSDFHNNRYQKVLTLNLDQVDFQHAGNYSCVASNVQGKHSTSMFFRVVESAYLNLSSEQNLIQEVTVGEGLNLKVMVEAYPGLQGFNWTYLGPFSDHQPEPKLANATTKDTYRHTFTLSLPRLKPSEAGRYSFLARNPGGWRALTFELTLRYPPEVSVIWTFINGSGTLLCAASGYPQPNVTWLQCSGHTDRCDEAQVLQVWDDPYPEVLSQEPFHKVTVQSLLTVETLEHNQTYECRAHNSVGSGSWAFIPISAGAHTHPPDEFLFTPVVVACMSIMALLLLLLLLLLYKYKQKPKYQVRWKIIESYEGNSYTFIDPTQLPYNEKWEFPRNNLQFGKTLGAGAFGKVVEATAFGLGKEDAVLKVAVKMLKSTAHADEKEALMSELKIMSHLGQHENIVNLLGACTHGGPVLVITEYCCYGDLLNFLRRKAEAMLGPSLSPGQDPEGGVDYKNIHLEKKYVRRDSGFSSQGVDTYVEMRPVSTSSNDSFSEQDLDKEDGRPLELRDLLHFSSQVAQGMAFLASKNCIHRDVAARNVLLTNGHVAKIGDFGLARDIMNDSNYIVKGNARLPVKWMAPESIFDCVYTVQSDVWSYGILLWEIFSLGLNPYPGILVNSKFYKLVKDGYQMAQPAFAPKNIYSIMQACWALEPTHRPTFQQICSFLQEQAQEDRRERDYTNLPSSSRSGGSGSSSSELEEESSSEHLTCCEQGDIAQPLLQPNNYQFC

[11] = target: T2, Tyrosine-protein kinase receptor TYRO3 (Homo sapiens, UniProt Q06418);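 further: TYRO3 value obtained as one member of a kinome-wide profiling panel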
T2 sequence (Q06418 whole entry): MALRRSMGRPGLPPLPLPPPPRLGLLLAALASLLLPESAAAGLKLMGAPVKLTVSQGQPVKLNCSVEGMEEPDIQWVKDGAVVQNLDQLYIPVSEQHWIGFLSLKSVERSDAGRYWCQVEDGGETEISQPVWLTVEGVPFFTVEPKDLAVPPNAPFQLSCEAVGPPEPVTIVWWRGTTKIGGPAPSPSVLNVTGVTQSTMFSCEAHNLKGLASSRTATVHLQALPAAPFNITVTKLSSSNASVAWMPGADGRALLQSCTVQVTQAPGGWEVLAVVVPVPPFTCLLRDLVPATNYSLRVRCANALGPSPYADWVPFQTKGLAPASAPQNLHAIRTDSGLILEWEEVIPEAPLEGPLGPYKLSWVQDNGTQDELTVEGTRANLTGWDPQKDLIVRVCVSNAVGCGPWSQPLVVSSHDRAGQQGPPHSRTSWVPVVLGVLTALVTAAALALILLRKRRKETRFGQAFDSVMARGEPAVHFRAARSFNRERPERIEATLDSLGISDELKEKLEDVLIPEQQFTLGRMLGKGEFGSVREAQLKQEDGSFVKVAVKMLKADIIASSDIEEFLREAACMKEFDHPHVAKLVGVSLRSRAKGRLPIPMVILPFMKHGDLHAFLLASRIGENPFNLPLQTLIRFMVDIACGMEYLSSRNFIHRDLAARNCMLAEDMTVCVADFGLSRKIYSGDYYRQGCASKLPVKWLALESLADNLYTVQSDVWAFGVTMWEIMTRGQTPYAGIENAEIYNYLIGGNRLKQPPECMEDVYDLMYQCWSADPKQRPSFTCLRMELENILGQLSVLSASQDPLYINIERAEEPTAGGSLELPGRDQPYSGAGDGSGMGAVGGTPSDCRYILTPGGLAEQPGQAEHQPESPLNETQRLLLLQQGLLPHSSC

[12] = target: Dual specificity tyrosine-phosphorylation-regulated kinase 1B (Homo sapiens, UniProt Q9Y463); assay: Navigating the Kinome. Panel member name: DYRK1B
Dual specificity tyrosine-phosphorylation-regulated kinase 1B, sequence (Q9Y463 whole entry): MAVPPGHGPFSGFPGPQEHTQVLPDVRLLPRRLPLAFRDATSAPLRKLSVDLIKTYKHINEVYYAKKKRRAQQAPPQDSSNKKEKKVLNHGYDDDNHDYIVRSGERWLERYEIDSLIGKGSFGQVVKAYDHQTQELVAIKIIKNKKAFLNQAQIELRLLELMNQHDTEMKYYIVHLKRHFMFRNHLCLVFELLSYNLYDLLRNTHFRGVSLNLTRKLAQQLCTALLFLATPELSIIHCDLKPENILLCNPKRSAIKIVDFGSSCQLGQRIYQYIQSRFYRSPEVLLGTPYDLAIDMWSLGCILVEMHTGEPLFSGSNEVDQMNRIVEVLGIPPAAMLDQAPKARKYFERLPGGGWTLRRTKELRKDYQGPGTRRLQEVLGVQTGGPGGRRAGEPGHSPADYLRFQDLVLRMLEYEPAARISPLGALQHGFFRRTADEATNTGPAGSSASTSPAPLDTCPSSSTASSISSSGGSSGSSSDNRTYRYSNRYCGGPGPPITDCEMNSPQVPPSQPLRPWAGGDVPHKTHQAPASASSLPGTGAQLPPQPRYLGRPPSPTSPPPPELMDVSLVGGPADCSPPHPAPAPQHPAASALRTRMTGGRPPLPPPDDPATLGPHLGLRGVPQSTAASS

[13] = target: Serine/threonine-protein kinase TBK1 (Homo sapiens, UniProt Q9UHD2); assay: Navigating the Kinome. Panel member name: TBK1
[14] = target: Ribosomal protein S6 kinase alpha-3 (Homo sapiens, UniProt P51812);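 further: measured within a kinome-wide profiling panel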
[15] = target: Proto-oncogene tyrosine-protein kinase receptor Ret (Homo sapiens, UniProt P07949);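 further: measured within a kinome-wide profiling panel, RET as the panel member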
[16] = target: Leukocyte tyrosine kinase receptor (Homo sapiens, UniProt P29376); assay: Navigating the Kinome. Panel member name: LTK
Leukocyte tyrosine kinase receptor, sequence (P29376 whole entry): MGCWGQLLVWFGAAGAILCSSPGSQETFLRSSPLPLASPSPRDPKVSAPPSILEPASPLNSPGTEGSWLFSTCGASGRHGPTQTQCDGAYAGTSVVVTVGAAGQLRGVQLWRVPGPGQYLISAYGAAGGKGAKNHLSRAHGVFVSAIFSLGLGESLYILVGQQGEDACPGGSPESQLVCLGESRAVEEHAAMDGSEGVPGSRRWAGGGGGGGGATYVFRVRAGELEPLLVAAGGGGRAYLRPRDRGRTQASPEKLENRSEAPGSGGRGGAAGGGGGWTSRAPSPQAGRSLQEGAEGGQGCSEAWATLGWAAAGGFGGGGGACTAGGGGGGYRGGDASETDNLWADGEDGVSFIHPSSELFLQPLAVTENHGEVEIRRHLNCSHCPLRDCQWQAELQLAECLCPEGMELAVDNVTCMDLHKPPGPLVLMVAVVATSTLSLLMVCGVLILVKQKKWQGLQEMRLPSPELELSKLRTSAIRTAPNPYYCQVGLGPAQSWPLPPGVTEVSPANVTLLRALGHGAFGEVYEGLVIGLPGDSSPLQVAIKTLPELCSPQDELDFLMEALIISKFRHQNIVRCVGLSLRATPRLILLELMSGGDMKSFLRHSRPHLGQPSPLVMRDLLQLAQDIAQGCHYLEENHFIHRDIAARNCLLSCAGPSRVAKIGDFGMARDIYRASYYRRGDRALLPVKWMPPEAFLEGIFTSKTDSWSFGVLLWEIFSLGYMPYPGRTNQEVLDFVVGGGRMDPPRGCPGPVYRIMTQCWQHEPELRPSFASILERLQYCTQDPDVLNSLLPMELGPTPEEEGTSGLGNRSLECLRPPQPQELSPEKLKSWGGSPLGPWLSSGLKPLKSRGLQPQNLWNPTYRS

[17] = target: Vascular endothelial growth factor receptor 1 (Homo sapiens, UniProt P17948);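 further: measured within a kinome-wide profiling panel, FLT1 as the panel member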
[18] = target: Leucine-rich repeat serine/threonine-protein kinase 2 (Homo sapiens, UniProt Q5S007);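 further: value from a broad kinome-wide panel profiling study in which LRRK2 was one of the kinases tested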
[19] = target: Mitogen-activated protein kinase kinase kinase kinase 4 (Homo sapiens, UniProt O95819)
[20] = target: Casein kinase I isoform alpha (Homo sapiens, UniProt P48729)
[21] = target: Fibroblast growth factor receptor 1 (Homo sapiens, UniProt P11362)
Fibroblast growth factor receptor 1, sequence (P11362 whole entry): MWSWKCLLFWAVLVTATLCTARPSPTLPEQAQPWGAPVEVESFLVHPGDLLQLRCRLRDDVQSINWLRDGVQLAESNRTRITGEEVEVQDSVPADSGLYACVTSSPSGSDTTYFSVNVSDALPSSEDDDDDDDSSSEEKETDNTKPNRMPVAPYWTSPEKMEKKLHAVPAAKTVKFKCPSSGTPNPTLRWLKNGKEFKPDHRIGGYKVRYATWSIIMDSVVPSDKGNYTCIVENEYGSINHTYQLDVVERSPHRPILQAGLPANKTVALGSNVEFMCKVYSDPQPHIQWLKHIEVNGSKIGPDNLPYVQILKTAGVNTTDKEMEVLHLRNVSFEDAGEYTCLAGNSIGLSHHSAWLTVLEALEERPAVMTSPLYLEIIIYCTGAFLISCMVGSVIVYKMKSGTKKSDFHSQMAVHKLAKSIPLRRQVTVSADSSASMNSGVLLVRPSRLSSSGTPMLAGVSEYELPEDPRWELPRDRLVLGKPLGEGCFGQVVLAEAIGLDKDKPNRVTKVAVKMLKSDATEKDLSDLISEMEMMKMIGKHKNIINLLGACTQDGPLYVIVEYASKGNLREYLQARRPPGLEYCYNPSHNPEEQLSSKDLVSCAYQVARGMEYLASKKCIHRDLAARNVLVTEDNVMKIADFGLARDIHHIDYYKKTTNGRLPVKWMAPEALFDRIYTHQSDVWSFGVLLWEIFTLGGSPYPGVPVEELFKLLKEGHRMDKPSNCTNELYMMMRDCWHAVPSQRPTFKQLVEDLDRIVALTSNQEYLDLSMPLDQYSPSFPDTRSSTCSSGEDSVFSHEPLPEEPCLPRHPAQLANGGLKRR

[22] = target: Cyclin-dependent kinase 7 (Homo sapiens, UniProt P50613);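 further: value comes from a kinome-wide kinase profiling panel in which CDK7 is one member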
[23] = target: T3, Serine/threonine-protein kinase Chk1 (Homo sapiens, UniProt O14757);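 further: measured as one member of a kinome-wide kinase profiling panel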
T3 sequence (O14757 whole entry): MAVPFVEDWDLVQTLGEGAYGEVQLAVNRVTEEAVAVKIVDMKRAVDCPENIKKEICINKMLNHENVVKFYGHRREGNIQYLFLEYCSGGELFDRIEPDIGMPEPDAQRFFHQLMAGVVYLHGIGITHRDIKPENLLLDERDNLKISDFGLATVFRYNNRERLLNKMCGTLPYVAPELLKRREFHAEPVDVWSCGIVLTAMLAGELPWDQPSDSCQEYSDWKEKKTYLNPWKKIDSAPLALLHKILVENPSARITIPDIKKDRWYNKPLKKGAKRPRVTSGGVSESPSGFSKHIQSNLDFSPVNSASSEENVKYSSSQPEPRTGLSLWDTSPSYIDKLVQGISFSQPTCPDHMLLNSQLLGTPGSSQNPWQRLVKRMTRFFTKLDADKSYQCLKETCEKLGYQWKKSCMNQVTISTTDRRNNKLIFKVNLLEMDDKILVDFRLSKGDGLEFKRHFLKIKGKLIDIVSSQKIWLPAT

[24] = target: Neuropeptides B/W receptor type 1 (Homo sapiens, UniProt P48145); assay: human NPBW1 receptor blockade, IC50 – cell-based, fluorescence, dose response, set 5, late-stage follow-up (AID 588566)
[25] = target: Melanin-concentrating hormone receptor 1 (Homo sapiens, UniProt Q99705); assay: Late-stage fluorescence-based counterscreen for antagonists of the G-protein coupled receptor 7 (GPR7): cell-based dose response assay to identify antagonists of the melanin-concentrating hormone receptor 1 (MCHR1) Set 5.
[26] = target: Benomyl/methotrexate resistance protein (Candida albicans, UniProt P28873); assay: Candida albicans Mdr1 pump inhibition curves – singleplex, Cherry Pick1 hits, dose response (AID 588608)
[27] = target: Multidrug resistance protein CDR2 (Candida albicans (strain SC5314 / ATCC MYA-2876) (Yeast), UniProt P78595); assay: inhibition of Nile Red efflux via Candida CDR2 – S. cerevisiae AD1-8u, singleplex, Cherry Pick1 hits, dose response (AID 588604)
[28] = target: Multidrug resistance protein CDR1 (Candida albicans, UniProt P43071); assay: inhibition of Nile Red efflux via Candida CDR1 – S. cerevisiae AD1-8u, singleplex, Cherry Pick1 hits, dose response (AID 588606)
Multidrug resistance protein CDR1, sequence (P43071 whole entry, looked up): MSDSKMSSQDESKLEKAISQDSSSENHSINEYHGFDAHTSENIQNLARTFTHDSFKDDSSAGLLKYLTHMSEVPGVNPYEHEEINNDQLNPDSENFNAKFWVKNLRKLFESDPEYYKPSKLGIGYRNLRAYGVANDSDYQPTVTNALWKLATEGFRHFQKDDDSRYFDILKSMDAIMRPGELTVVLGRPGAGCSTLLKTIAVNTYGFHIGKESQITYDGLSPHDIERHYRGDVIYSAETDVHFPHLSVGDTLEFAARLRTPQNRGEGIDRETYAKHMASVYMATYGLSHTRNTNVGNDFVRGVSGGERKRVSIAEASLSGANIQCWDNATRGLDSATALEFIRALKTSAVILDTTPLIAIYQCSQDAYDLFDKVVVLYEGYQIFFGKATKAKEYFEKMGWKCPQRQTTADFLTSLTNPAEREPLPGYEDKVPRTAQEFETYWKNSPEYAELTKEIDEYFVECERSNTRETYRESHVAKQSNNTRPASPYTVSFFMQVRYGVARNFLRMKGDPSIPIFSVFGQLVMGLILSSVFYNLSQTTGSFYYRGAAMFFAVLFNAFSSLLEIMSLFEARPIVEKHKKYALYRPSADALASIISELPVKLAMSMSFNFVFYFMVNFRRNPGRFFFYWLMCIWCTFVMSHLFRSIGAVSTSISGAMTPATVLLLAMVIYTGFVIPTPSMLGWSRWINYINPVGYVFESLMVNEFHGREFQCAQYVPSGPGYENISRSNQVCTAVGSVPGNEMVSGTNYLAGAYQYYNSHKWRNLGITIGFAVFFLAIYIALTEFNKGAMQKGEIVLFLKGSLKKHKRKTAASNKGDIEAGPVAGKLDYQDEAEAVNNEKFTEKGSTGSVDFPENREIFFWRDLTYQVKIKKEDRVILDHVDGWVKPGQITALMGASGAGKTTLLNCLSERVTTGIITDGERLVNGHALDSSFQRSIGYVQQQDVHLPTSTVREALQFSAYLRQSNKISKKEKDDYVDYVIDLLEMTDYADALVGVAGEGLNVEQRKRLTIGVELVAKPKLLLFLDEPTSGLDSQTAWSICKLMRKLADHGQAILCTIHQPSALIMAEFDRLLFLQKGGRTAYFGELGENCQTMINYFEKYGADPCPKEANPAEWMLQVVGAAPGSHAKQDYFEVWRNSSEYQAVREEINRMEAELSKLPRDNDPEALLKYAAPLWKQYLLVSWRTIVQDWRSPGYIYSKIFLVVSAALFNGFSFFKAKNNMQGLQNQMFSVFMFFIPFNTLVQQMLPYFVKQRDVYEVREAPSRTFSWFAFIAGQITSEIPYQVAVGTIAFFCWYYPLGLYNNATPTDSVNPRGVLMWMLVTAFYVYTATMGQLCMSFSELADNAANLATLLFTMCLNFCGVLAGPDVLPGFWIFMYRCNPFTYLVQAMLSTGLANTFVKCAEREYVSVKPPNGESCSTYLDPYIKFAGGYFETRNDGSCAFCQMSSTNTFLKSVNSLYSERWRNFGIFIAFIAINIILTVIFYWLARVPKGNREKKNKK

- Ki [1]: 100 µM (active)
- Ki [2]: 20 µM (active)
- Ki [3]: 100 µM (active)
- Ki [4]: 31.6 µM (active)
- Ki [5]: 12.6 µM (active)
- Ki [6]: 50.1 µM (active)
- Ki [8]: 25.1 µM (active)
- Ki [9]: 63.1 µM (active)
- Ki [10]: 79.4 µM (active)
- Ki [11]: 63.1 µM (active)
- Ki [12]: 39.8 µM (active)
- Ki [13]: 50.1 µM (active)
- Ki [14]: 79.4 µM (active)
- Ki [15]: 31.6 µM (active)
- Ki [16]: 39.8 µM (active)
- Ki [17]: 25.1 µM (active)
- Ki [18]: 31.6 µM (active)
- Ki [19]: 31.6 µM (active)
- Ki [20]: 20 µM (active)
- Ki [21]: 100 µM (active)
- Ki [22]: 63.1 µM (active)
- Ki [23]: 25.1 µM (active)
SMILES: Nc1ncnc2c1C(=O)NCCN2
- Ki [7]: 15.8 µM (active)

- IC50 [24]: 3.3 µM (active)
- IC50 [25]: 17.8 µM (inactive)
SMILES: O=c1c(Cl)c(Oc2ccc3c(c2)OCO3)cnn1Cc1cccc2ccccc12

SMILES: COc1cc(OC)cc(-c2sc3ccc(OC)cc3c2-c2ccc(OCCN3CCOCC3)cc2)c1
- EC50 [26]: 13.7 µM (active)
- EC50 [27]: 38.5 µM (active)
- EC50 [28]: 11.3 µM (active)
